The values that follow come from patent publication US20220194959A1, “CRYSTAL FORM OF EGFR INHIBITOR AND PREPARATION METHOD THEREOF” (MEDSHINE DISCOVERY INC., priority 2019, published 2022).

The data set in a line: Solubility assay in media with different pHs. The data set is classed as physicochemical. As to conditions: 37 °C, thermodynamic from solid. The protocol:
(§1) 9 parts of 4 mg of the crystal form A of the compound of formula (II) were weighed and added to a 1.5 mL sample bottle, respectively, and then 1 mL of different media (0.1 mol/L HCl, 0.01 mol/L HCl, pH3.8 buffer solution, pH4.5 buffer solution, pH5.5 buffer solution, pH6.0 buffer solution, pH6.8 buffer solution, pH7.4 buffer solution, and water) were added, respectively. Based on the dissolution situation, the raw material compound was continuously added until a saturated solution was formed. The magnetic bar was added to the above suspension, and the suspension was placed on a magnetic stirrer (37° C., protected from light) and stirred. […] The upper layer of the sample was filtered with a filter membrane, and the pH value of the filtrate was determined. The saturated solubility of the compound was determined by HPLC.
as §1, with “C” for “A”

The mark [1] stands for this setting: 0.1 mol/L HCl, pH 1, simulated gastric fluid.
The mark [2] stands for this setting: pH 6.8 buffer solution, pH 6.8, aqueous buffer.
Setting [3] is: pH 7.4 buffer solution, pH 7.4, aqueous buffer.

Regarding `COc1cc2ncnc(Nc3cccc(Cl)c3F)c2cc1N1CC2(CN(C)C2)OC1=O.Cc1ccc(S(=O)(=O)O)cc1`, the solubility at 2 h was 7440 µg/mL (0.01 mol/L HCl, pH 2, simulated gastric fluid); > 10000 µg/mL under setting [1]; 354 µg/mL under setting [2]; 99 µg/mL under setting [3]. For the same molecule, the solubility at 24 h by setting is: under setting [1], > 10000 µg/mL; (pH 5.5 buffer solution, pH 5.5, aqueous buffer) 1300 µg/mL; under setting [2], 73 µg/mL; under setting [3], 22 µg/mL; (water) 1140 µg/mL.

As a reminder, the solubility is the concentration that dissolves in the medium under given conditions.
